Reference: patent publication US10357480B2, “Biotin for treating peripheral demyelinating neuropathy” (MedDay Pharmaceuticals, priority 2015, dated 2019)

Assays:
[1] = system: patients with demyelinating Charcot Marie Tooth (CMT) disease; assay: Treatment of patients with demyelinating Charcot Marie Tooth disease, 6 minutes walking test; assay type: in vivo, human
Procedure: Two patients with demyelinating Charcot Marie Tooth (CMT) disease were treated with biotin 300 mg/day. • A patient with CMT1a was treated with high doses of biotin (100 mg three times a day). No other treatment was introduced. The patient was followed clinically using a 6 minutes walking test. After 9 months of treatment the maximum walking distance was improved by 100 meters. • A person with CMT1E (a rare form of demyelinating CMT with hearing loss) was treated with high doses biotin (100 mg three times a day). No other drug was introduced.

[2] = in vivo; cited from earlier work
[3] = system: patients diagnosed with Neuromyelitis optica; assay: Treatment of patients with neuromyelitis optica, visual acuity and motor strength; assay type: in vivo, human; settings: for visual acuity right: 0/10 at onset; for visual acuity left: 9/10 at onset
Text: Biotin can be used for treatment of neuromyelitis optica, using the same kind of regimen as disclosed in Examples 1 and 4.
Endpoint would be partial recovery and improvement of vision or of motor strength. Three patients will be treated and assessed every 6 months with measures of visual acuity (VA) and clinical examination including motor strength testing. Results will be considered positive in case of improvement of VA of at least 5 letters associated with any improvement of motor strength.
Results: • Patient 1: this person was diagnosed with Neuromyelitis optica. First episode of right optic neuritis occurred in 2006. This was followed by an attack of tetraplegia in 2009 with positive anti-NMO antibodies. […] The patient could not walk. Treatment with biotin (100 mg three times a day) was started. […] Treatment with biotin (100 mg three times a day) was introduced. At that time the patient was treated with monthly perfusions of cyclophosphamide. Visual acuity was 0/10 right and 9/10 left. After 4 months of treatment with biotin, visual acuity was 1/10 right and 6/10 left. After 18 months of treatment, visual acuity was 2/10 right and 8/10 left. It was concluded that treatment with biotin improved the right visual acuity.

[4] = system: patient suffering from ALS; assay: Treatment of a patient suffering from ALS with high doses biotin (case report); assay type: in vivo, human
Procedure: Treatment with biotin 100 mg three times a day was started the 11 Sep. 2015. […] All these medications were introduced at least 6 months before.

[5] = system: IgM anti-MAG demyelinating neuropathy; settings: controlled trial (Léger et al, 2013); cited from earlier work
[6] = system: CMT1A; settings: six clinical trials, 1- or 2-year AA treatment; cited from earlier work
[7] = biotin 100 mg three times a day

O=C(O)CCCC[C@@H]1SC[C@@H]2NC(=O)N[C@@H]21 [biotin, Biotin]
6 minutes walk test ([1]; CMT1E patient, after 9 months, 396 meters at onset): 490 meters
6 minutes walk test ([1]; CMT1E patient, after 12 months, 396 meters at onset): 480 meters
6 minutes walk test ([1]; CMT1E patient, after 18 months, 396 meters at onset): 483 meters
6 minutes walk test ([1]; CMT1E patient, after 24 months, 396 meters at onset): 580 meters
improvement of maximum walking distance, 6 minutes walking test ([1]; patient with CMT1a, biotin 100 mg three times a day, after 9 months): 100 meters
6 minutes walk test ([1]; person with CMT1E, biotin 100 mg three times a day, after 3 months, 396 meters at treatment's onset): 515 meters
plasma half life [2]: about 2 hours
strength in the right lower limb ([3]; NMO Patient 1, after 9 months): better strength
walking ability ([3]; NMO Patient 1, after 24 months, could not walk at onset): walk with two aids and the help of the physical therapist
tolerability of treatment ([3]; NMO Patient 1, biotin 100 mg three times a day, 24 months): very well tolerated
right hand movements ([3]; NMO Patient 1, biotin 100 mg three times a day, after three months, confirmed after 9 months): some improvement
visual acuity right ([3]; NMO Patient 2, after 4 months of biotin 100 mg three times a day, monthly cyclophosphamide): 1/10
visual acuity left ([3]; NMO Patient 2, after 4 months): 6/10
visual acuity right ([3]; NMO Patient 2, after 18 months): 2/10
visual acuity left ([3]; NMO Patient 2, after 18 months): 8/10
time the patient could switch off the medical ventilator ([4]; after 6 months of treatment, dependent on ventilator 24 hours a day at beginning): 4 hours a day
disability [4, 7]: some stabilization of its disability
weight of the patient [4, 7]: slightly increased
muscle atrophy in lower extremities ([4]; biotin 100 mg three times a day, after 3 and 6 months, better exercise tolerance during physical therapy): some improvement
limbs weakness and swallowing ([4]; biotin 100 mg three times a day, after 3 and 6 months, concomitant riluzole and other medications): stabilization

Rituximab: monoclonal antibody
patients condition [5]: didn't really improve

O=C1O[C@H]([C@@H](O)CO)C(O)=C1O [Ascorbic acid]
clinical benefit [6]: no clinical benefit
